Experimental data taken from US5017581A, “Pyridonecarboxylic acids and their anti-bacterial compositions” (Shionogi & Co., Ltd., priority 1988, dated 1991).
≈ marks a conversion by molar mass, not a printed value.

Tests used:
[1] = Convulsion and psychotropic action in mice after oral administration; assay type: in vivo; conditions: orally, dose of 10 mg
[2] = tested on: Staphylococcus aureus Smith; test: Antibacterial spectrum, MIC (method of the Japan Society of Chemotherapy), A; assay type: cell-based; conditions: 10^6 cells/ml, read-out: MIC (minimum grouth inhibitory concentration)
Description: (§1) The antibacterial activity was determined by measuring minimum grouth inhibitory concentrations (MICs) in accordance with the method as designated by the Japan Society of Chemotherapy. A, B, C, and D in the table indicate the following meanings: A: Staphylococcus aureus Smith The test microorganisms were used at 10^6 cells/ml.

Escherichia coli 7437 = test: Antibacterial spectrum, MIC (method of the Japan Society of Chemotherapy), C; assay type: cell-based; conditions: 10^6 cells/ml, read-out: MIC (minimum grouth inhibitory concentration)
Description: as §1, with “C: Escherichia coli 7437” for “A: Staphylococcus aureus Smith”

[3] = tested on: Escherichia coli PC 51149 B; test: Antibacterial spectrum, MIC (method of the Japan Society of Chemotherapy), D; assay type: cell-based; conditions: PC51149B, 10^6 cells/ml, read-out: MIC (minimum grouth inhibitory concentration)
Description: as §1, with “D: Escherichia coli PC 51149 B” for “A: Staphylococcus aureus Smith”

[4] = tested on: Staphylococcus aureus SR 14 (R); test: Antibacterial spectrum, MIC (method of the Japan Society of Chemotherapy), B; assay type: cell-based; conditions: 10^6 cells/ml, read-out: MIC (minimum grouth inhibitory concentration)
Description: The antibacterial activity was determined by measuring minimum grouth inhibitory concentrations (MICs) in accordance with the method as designated by the Japan Society of Chemotherapy.
A, B, C, and D in the table indicate the following meanings:
B: Staphylococcus aureus SR 14 (R)
The test microorganisms were used at 10^6 cells/ml.

MIC [2]	MIC (Escherichia coli 7437)	MIC [3]	MIC [4]	Compound	convulsion and psychotropic action [1]
0.05 mg/L (≈ 0.138 µM)	< 0.003 mg/L	< 0.003 mg/L	0.05 mg/L (≈ 0.138 µM)	C=C1CN(c2c(F)cc3c(=O)c(C(=O)O)cn(C4CC4)c3c2F)CC1N (stereo not drawn) [Compound I-1, 1-Cyclopropyl-6,8-difluoro-7-(3-amino-4-methylenepyrrolidin-1-yl)-1,4-dihydro-4-oxo-3-quinolinecarboxylic acid]	neither convulsion nor psychotropic action was observed
0.01 mg/L (≈ 0.0265 µM)	< 0.003 mg/L	< 0.003 mg/L	0.02 mg/L (≈ 0.0529 µM)	C=C1CN(c2c(F)cc3c(=O)c(C(=O)O)cn(C4CC4)c3c2Cl)CC1N (stereo not drawn) [Compound I-2, 1-Cyclopropyl-8-chloro-6-fluoro-7-(3-amino-4-methylenepyrrolidin-1-yl)-1,4-dihydro-4-oxo-3-quinolinecarboxylic acid]	
0.02 mg/L (≈ 0.0531 µM)	< 0.003 mg/L	< 0.003 mg/L	0.05 mg/L (≈ 0.133 µM)	C=C1CN(c2c(F)c(N)c3c(=O)c(C(=O)O)cn(C4CC4)c3c2F)CC1N (stereo not drawn) [Compound I-3, 1-Cyclopropyl-5-amino-6,8-difluoro-7-(3-amino-4-methylenepyrrolydin-1-yl)-1,4-dihydro-4-oxo-3-quinolinecarboxylic acid]	
0.1 mg/L (≈ 0.29 µM)	< 0.003 mg/L	0.006 mg/L (≈ 0.0174 µM)	0.1 mg/L (≈ 0.29 µM)	C=C1CN(c2nc3c(cc2F)c(=O)c(C(=O)O)cn3C2CC2)CC1N (stereo not drawn) [Compound I-4, 1-Cyclopropyl-6-fluoro-7-(3-amino-4-methylenepyrrolidin-1-yl)-1,4-dihydro-4-oxo-1,8-naphthyridine-3-carboxylic acid]	
0.05 mg/L (≈ 0.133 µM)	< 0.003 mg/L	0.006 mg/L (≈ 0.016 µM)	0.05 mg/L (≈ 0.133 µM)	C=C1CN(c2c(F)cc3c(=O)c(C(=O)O)cn(C4CC4)c3c2F)CC1NC (stereo not drawn) [Compound I-5, 1-Cyclopropyl-6,8-difluoro-7-(3-methylamino-4-methylenepyrrolidin-1-yl)-1,4-dihydro-4-oxo-3-quinolinecarboxylic acid]	
